Experimental data from publication PMC7913925, “Design and Evaluation of a Polypeptide That Mimics the Integrin Binding Site for EDA Fibronectin to Block Profibrotic Cell Activity” (International Journal of Molecular Sciences, 2021).
Each block holds one molecule with its values, some of them ahead of it. Bridges are numbered along the chain shown (N, C = ends). Where no end group is shown, it is not given here.

How the values were obtained:
[1] = tested on: EDA-FN ECM of TGF-β1-treated fibroblasts; assay: Epifluorescence assay of AF38Pep-Cy5 binding to fibrotic ECM (IVIS); type: cell-based; settings: AF38Pep-Cy5 10 µg/mL
Method: (§1) A solution containing 1:1 molar ratio of AF38Pep to non-sulphated Cy5-NHS-ester (APExBIO, Houston, TX, USA) was incubated overnight in RT, shielded from light and under constant mixing. The following day, the solution was passed through a PD-10 Sephadex G-25 M gel filtration column (GE Healthcare, Chicago, IL, USA) into PBS. The first 3 fractions (highest molecular weight) were collected, dialyzed (membrane MWCO 1 kDa) against ddH2O overnight, and concentrated by vacuum centrifuge at 3000 rpm at 60 °C for 3 h. Fibroblasts were grown to 70% confluence in 12-well tissue culture plates, before growth arrest in serum-free DMEM for 48 h. Cells were then treated with 10 ng/mL TGF-β1 for 0, 24, 48 and 72 h. The conjugated AF38Pep-Cy5 was added to the plate wells at 10 µg/mL and was incubated for 2 h. The culture medium was removed, and cells were washed three times with PBS before replenishment with fresh serum-free DMEM. Any AF38Pep-Cy5 that remained bound to EDA-FN was assessed using an IVIS imaging system (Caliper Life Sciences, PerkinElmer, Hopkinton, MA, USA) set to detect Cy5.5 epifluorescence after excitation at 640 nm. Epifluorescence was quantified using Living Image v4.2 analysis software (Caliper Life Sciences).

[2] = tested on: EDA-FN in fixed fibroblast or myofibroblast ECM; assay: Competitive labelling of fixed matrices, AF38Pep-Cy5 and IST-9; type: cell-based
Method: as §1
Cells were grown to 40% confluence in 8-well glass chamber slides (Nunc, Thermo Fisher Scientific), prior to growth arrest and treatment. Cells were washed with PBS before fixation in 4% paraformaldehyde for 10 min at room temperature. Next, cells were permeabilized with 0.1% (v/v) Triton X-100 in PBS for 10 min at room temperature. For visualization of ECM, cells were fixed with 100% ice-cold methanol for 8 min at −20 °C. Slides were washed with PBS and blocked with 1% goat serum (TBD Science, Tianjin, China) for 30 min before washing with 0.1% (w/v) BSA in PBS. […] Cells were then mounted in DAPI Fluoromount-G (Thermo Fisher Scientific) and imaged using a Zeiss Axio Imager Z1 UV fluorescence microscope (Zeiss, Jena, Germany) and a Leica TCS SP5 laser scanning confocal microscope (Leica Biosystems, Baden-Württemberg, Germany).

[3] = tested on: fixed ECM of fibroblasts or differentiated myofibroblasts; assay: AF38Pep-Cy5 labelling of ECM vs FN1 immunostaining; type: cell-based
Method: as §1, with “Cells were then treated with 10 ng/mL TGF-β1 for 0, 24, 48 and 72 h. The conjugated AF38Pep-Cy5 was added to the plate wells at 10 µg/mL and was incubated for 2 h. The culture medium was removed, and cells were washed three times with PBS before replenishment with fresh serum-free DMEM.” left out
Cells were grown to 40% confluence in 8-well glass chamber slides (Nunc, Thermo Fisher Scientific), prior to growth arrest and treatment. […] Cells were then mounted in DAPI Fluoromount-G (Thermo Fisher Scientific) and imaged using a Zeiss Axio Imager Z1 UV fluorescence microscope (Zeiss, Jena, Germany) and a Leica TCS SP5 laser scanning confocal microscope (Leica Biosystems, Baden-Württemberg, Germany).

[4] = biological target: integrin α4 protein (ITGA4) (not stated (endogenous in fibroblasts; mouse NIH/3T3 and human HFL1 cells were cultured)) (UniProt Q00651); settings: scale: % of that observed in cells that only received TGF-β1 treatment
Sequence of integrin α4 protein (ITGA4) (not stated (endogenous in fibroblasts; mouse NIH/3T3 and human HFL1 cells were cultured)) (Q00651 41-1039): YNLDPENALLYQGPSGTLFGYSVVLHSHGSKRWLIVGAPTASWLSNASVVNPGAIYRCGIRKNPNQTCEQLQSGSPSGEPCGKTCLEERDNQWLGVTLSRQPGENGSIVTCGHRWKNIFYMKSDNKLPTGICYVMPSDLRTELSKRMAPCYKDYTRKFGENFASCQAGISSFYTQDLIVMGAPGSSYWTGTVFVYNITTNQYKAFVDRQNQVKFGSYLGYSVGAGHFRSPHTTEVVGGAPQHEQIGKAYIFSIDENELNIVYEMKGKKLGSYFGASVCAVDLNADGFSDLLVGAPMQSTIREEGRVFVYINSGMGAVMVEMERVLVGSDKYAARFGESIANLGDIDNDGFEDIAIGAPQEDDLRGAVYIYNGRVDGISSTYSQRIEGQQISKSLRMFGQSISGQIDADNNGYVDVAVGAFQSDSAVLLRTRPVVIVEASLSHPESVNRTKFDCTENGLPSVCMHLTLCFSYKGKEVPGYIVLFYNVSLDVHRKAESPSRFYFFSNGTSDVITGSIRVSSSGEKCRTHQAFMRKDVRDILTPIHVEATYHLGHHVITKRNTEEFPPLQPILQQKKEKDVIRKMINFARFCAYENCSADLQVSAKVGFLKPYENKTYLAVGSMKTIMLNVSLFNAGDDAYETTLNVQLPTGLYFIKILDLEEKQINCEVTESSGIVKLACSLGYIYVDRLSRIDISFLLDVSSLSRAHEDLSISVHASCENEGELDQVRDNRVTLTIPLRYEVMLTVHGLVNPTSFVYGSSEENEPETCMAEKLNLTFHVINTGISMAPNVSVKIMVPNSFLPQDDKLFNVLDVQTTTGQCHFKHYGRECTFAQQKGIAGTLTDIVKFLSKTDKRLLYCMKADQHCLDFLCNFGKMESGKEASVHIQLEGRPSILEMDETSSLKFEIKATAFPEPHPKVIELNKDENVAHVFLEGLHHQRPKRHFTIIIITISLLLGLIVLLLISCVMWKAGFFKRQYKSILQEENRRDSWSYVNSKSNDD

[5] = biological target: T1, FN-EDA, a peptide sharing amino acid sequence with the C-C′ loop of EDA-FN; assay: ITC
T1 peptide: TYSSPEDGIHEL

[6] = biological target: T1, FN-EDA, a peptide sharing amino acid …; assay: ITC
[7] = biological target: T2, antifibrotic 38-amino-acid polypeptide (AF38Pep) (disulfide bridge between the two cysteines); assay: ITC; 15 µM AF38Pep in the chamber well, 300 µM small peptide in the injection needle; 25 °C; HEPES buffered saline (140 mM NaCl, 1.5 mM Na2HPO4, 50 mM HEPES; pH 7); MicroCal iTC200; one set of sites model with number of binding sites assumed to be 1; settings: both partners purified
T2 construct: two stretches derived from integrins β1 and α4, linked by a serine; Design contains the ISTTPAK motif of integrin β1/β7 and the KNENKI motif of integrin α4; source: synthetic peptide (ChinaPeptides)
T2 peptide: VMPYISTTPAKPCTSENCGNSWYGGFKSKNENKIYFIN

Molecule: AF38Pep-Cy5: AF38Pep conjugated to Cy5 dye (non-sulphated Cy5-NHS-ester) (VMPYISTTPAKPCTSENCGNSWYGGFKSKNENKIYFIN; disulfide 13-18 (inferred); also: Cy5 label, site not given here)
binding to fibrotic ECM with TGF-β1 treatment time ([1]; TGF-β1 10 ng/mL for 24, 48, 72 h): increased binding of AF38Pep to the fibrotic ECM, which correlated with the increasing time of TGF-β1 treatment
binding at 48 h vs 0 h TGF-β1 treatment ([1]; mean ± S.E., three experiments): significant increases in binding at 48 h
staining of fibroblast matrices, IST-9 or AF38Pep-Cy5 ([2]; fibroblasts, regardless of the order of addition): minimal, regardless of the order of addition to cells
blocking of IST-9 staining by AF38Pep-Cy5 pretreatment ([2]; myofibroblasts, AF38Pep-Cy5 first, then IST-9): pre-treatment blocked IST-9 staining
labelling of EDA-FN after IST-9 pretreatment ([2]; myofibroblasts, IST-9 first, then AF38Pep-Cy5): failed to label the elevated EDA-FN production
AF38Pep-Cy5 colocalization with FN1 staining, myofibroblast ECM ([3]; differentiated myofibroblasts): colocalization with anti-FN1 staining (yellow) was prominent in areas of fibronectin deposition at cell membranes
AF38Pep-Cy5 staining of fibroblast ECM ([3]; untreated control fibroblasts): little to no staining

total collagen synthesis (hydroxyproline assay) of NIH/3T3 cells after 48 h of TGF-β1 with AF38Pep as blocker, relative to TGF-β1 alone [4]: 60
Molecule: extra domain A containing fibronectin (EDA-FN) (from UniProt P11276 33-2477) (natural protein)

Ka [5]: 1.11e+06 M⁻¹
Kd [6]: 858 nM
B1: antifibrotic 38-amino-acid polypeptide (AF38Pep) (designed binder)
peptide: VMPYISTTPAKPCTSENCGNSWYGGFKSKNENKIYFIN
modifications: disulfide 13-18 (inferred)

binding result [7]: binds
B2: FN-EDA, a peptide sharing amino acid sequence with the C-C′ loop of EDA-FN (peptide)
peptide: TYSSPEDGIHEL
notes: 12-residue stretch of the C-C′ loop of extra domain A (EDA) of fibronectin; also called fibronectin EDA-peptide; EDA-FN C-C′ loop peptide; source: synthetic peptide (ChinaPeptides)
